The subject of assay [1] is Escherichia coli AB1157 ΔemrB. The assay can be described thus: Checkerboard MIC assay (antibacterial agent + MBX2319). The assay is classed as cell-based. The conditions noted are these: EmrB-defective mutant; data not shown. An excerpt: (§1) • Strains and Reagents. The following strains were obtained from the Keio collection (Baba, et al.: Construction of Escherichia coli K-12 in-frame, single-gene knockout mutants: the Keio collection. In Mol Syst Biol, vol. 2, pp. 2006 0008, (2006)): JW0451 (ΔacrB::kan), JW5503 (ΔtolC::kan), JW3234 (ΔacrF::kan), JW2661 (ΔemrB::kan), JW0863 (ΔmacB::kan). The deletion mutations in each of these strains were transferred to AB1157 using P1 phage transduction (see Table 1). The construction of the E. coli cell-based reporter strain (SOS-XXX) that was used for high throughput screening is described in detail in the supplementary information. […] Irgasan was a generous gift from Ciba Speciality Chemicals, Inc. (High Point, N.C.). Hoechst 33342 (H33342) was purchased from Molecular Probes (Eugene, Oreg.). […] Luria Broth (Miller) and agar were purchased as prepared dehydrated media from Becton Dickenson (Franklin Lakes, N.J.). The compound libraries used in high-throughput screens were purchased from Chembridge (San Diego, Calif.), ChemDiv (San Diego, Calif.), and TimTec (Newark, Del.). MBX2319 was synthesized by Microbiotix, Inc. • Antibacterial Activity Assays. The minimal inhibitory concentration (MIC) of antibacterial agents and biocides were determined using the microbroth dilution method essentially as described in the CLSI protocol M7-A7 (CLSI: Method for dilution antimicrobial susceptibility testing for bacteria that grow aerobically; Approved standard-document M7-A7. In Clinical and Laboratory Standards Institute document M7-A7, Clinical and Laboratory Standards Institute, Wayne, Pa., (2006)), with the following exceptions. LB media was used instead of MHB. […] The final concentration of DMSO in each assay was 2%. […] MIC assays were performed in triplicate and the geometric mean was calculated. Checkerboard MIC assays using an EPI and an antibacterial agent were performed essentially as described (Pillai, et al.: Antimicrobial Combinations. In Antibiotics in Laboratory Medicine, ed. by V. Lorian, pp. 365-440, Lippincott Williams & Wilkins, Philadelphia, Pa., (2005)), with the same modifications used for the MIC assays described above. • Time-Kill Assays. Killing curve assays were performed essentially as described (Pillai, et al.: Antimicrobial Combinations. In Antibiotics in Laboratory Medicine, ed. by V. Lorian, pp. 365-440, Lippincott Williams & Wilkins, Philadelphia, Pa., (2005)). Exponential bacterial cultures grown in LB were diluted to a cell density of ˜1×10^7 in LB followed by addition of CIP and/or an EPI. Viability was monitored over 2-4 hours by making serial dilutions in saline and spotting 5 μl of each dilution onto the surface of an LB agar plate in triplicate. Colonies were counted after the plates were incubated at 37° C. for 16-18 hr, colony forming units (CFU) per ml were calculated, and the average and standard deviation for the three replicates was determined. For treatments that decreased CFU/ml below the limit of detection for the spot plating method, the 100 μl samples were diluted into 5 ml LB top agar, were poured onto LB agar plates, and incubated for 18 hr at 37° C. To calculate the fraction of the control for each sample, the average CFU/ml values for treated samples were divided by those from the same sample at 0 h (time=0). Each experiment was repeated at least three times, and a representative experiment is shown. • H33342 Accumulation Assay. The rate of accumulation of the fluorescent dye Hoechst 33342 (H33342), which is a substrate of a wide variety of bacterial efflux pumps (van den Berg van Saparoea, et al., Biochemistry, vol. 44, pp. 16931-16938, (2005)), can be used to estimate the activity of the major efflux pumps in E. coli and many other bacterial species. The H33342 accumulation assay was used to evaluate the effect of EPIs on the activity of the AcrAB-TolC efflux pump in several bacterial species essentially as described (Coldham, et al., J Antimicrob Chemother, vol. 65, pp. 1655-1663, (2010)). […]

In assay [2] the test system is Escherichia coli AB1157 ΔmacB. Described as above. The assay is classed as cell-based. The conditions noted are these: MacB-defective mutant; data not shown.
Text: as §1

A short description of assay [3]: H33342 accumulation assay. The assay is classed as cell-based, Pseudomonas aeruginosa ATCC 27835. The note with it: P. aeruginosa; 25 μM.
For assay [4], the system named is diverse panel of E. coli strains. Put plainly: Cumulative MICs (MIC50, MIC90) for levofloxacin and piperacillin ± 25 μM MBX2319. The assay is classed as cell-based, Escherichia coli. The conditions noted are these: E. coli strain panel.
Text: as §1, with “Exponential bacterial cultures grown in LB were diluted to a cell density of ˜1×10^7 in LB followed by addition of CIP and/or an EPI.” left out, “determined.” for “determined. For treatments that decreased CFU/ml below the limit of detection for the spot plating method, the 100 μl samples were diluted into 5 ml LB top agar, were poured onto LB agar plates, and incubated for 18 hr at 37° C. To calculate the fraction of the control for each sample, the average CFU/ml values for treated samples were divided by those from the same sample at 0 h (time=0). Each experiment was repeated at least three times, and a representative experiment is shown. • H33342 Accumulation Assay. The rate of accumulation of the fluorescent dye Hoechst 33342 (H33342), which is a substrate of a wide variety of bacterial efflux pumps (van den Berg van Saparoea, et al., Biochemistry, vol. 44, pp. 16931-16938, (2005)), can be used to estimate the activity of the major efflux pumps in E. coli and many other bacterial species. The H33342 accumulation assay was used to evaluate the effect of EPIs on the activity of the AcrAB-TolC efflux pump in several bacterial species essentially as described (Coldham, et al., J Antimicrob Chemother, vol. 65, pp. 1655-1663, (2010)).”

For the next assay, the system named is P. aeruginosa ATCC 27853. Put plainly: MIC assay (microbroth dilution) ± 25 μM EPI. The assay is classed as cell-based, Pseudomonas aeruginosa.
Text: as §1
A general note: In broth dilution the organism is exposed to a series of concentrations in liquid medium.

Regarding `CC1(C)Cc2c(C#N)c(SCCc3ccccc3)nc(N3CCOCC3)c2CO1` [MBX2319], the “MIC shifts by MBX2319” value in assay [1] is “MIC shifts similar to WT”. Besides, the “MIC shifts by MBX2319” value in assay [2] was “MIC shifts similar to WT”. Moreover, in assay [3], the H33342 accumulation result was “weak activity”. Moreover, in assay [4], the “decrease of MIC50 for LEV” value was “four fold”, the “decrease of MIC90 for LEV” value was “four fold”, the “effect on MIC50 for PIP” value is given as “did not have a significant effect” and the “effect on MIC90 for PIP” value is recorded as “did not have a significant effect”.
Consider `CCN1CCN(C(=O)N[C@@H](C(=O)N[C@@H]2C(=O)N3[C@@H]2SC(C)(C)[C@@H]3C(=O)O)c2ccccc2)C(=O)C1=O` [Piperacillin, piperacillin], for which, in the assay on P. aeruginosa ATCC 27853 (+ 25 μM MBX2319), the “MIC (μg/ml) ± EPI: MBX2319” value turned out to be 19 µg/mL. Besides, the “MIC (μg/ml) ± EPI: PAβN” value with P. aeruginosa ATCC 27853 (+ 25 μM PAβN) came out at 19 µg/mL. For the same molecule, in the assay on P. aeruginosa ATCC 27853 (MIC no cmpd/MIC + 25 μM MBX2319), the “MIC Ratio MBX2319” value is 0.84. The “MIC Ratio PAβN” value with P. aeruginosa ATCC 27853 (MIC no cmpd/MIC + 25 μM PAβN) is listed as 0.8. Further, the MIC in the assay on P. aeruginosa ATCC 27853 (Pseudomonas aeruginosa, ATCC27853, no EPI, read-out: MIC (μg/ml) ± EPI: None) is 16 µg/mL.

(Values after patent US9540389B2, “Antimicrobial potentiators” (priority 2013, dated 2017).)
